The source of these data is patent EP0094815B1, “Oligopeptide prodrugs” (SMITHKLINE BECKMAN CORPORATION, priority 1982, dated 1983).

Where only a bound is given, the exact number is not on record here.

Data set [1] deals with C. albicans. The data set is described as follows: Minimum inhibitory concentration, two-fold broth dilution (Method B). The class given is cell-based, Candida albicans. As to conditions: C. albicans in Method B; text summary of MIC table (table is an image). How it is done: (§1) The minimum inhibitory concentration of the test compound was determined by two-fold broth dilution tests in yeast carbon base medium, containing 200 pg/ml of sodium glutamate. The compounds were diluted from […] to 0.25 pg/ml and the test medium was inoculated with a suspension of C. albicans grown in the same medium for 15 hours at 37°. The final inoculum sizes in the tests were approximately 10^4 cfu/ml and 10^3 cfu/ml. The tubes were incubated at 37° for 24 and 48 hours and observed for inhibition.
In general terms: In broth dilution the organism is exposed to a series of concentrations in liquid medium.

Data set [2] can be described thus: Stability of a-substituted glycine peptides in aqueous buffer (Ellman colorimetric assay). The format is physicochemical. As to conditions: for half-life: 0.2 M phosphate buffer (pH 7.0), no enzyme, read-out: stable (t).
Data set [3] relates to Leucine Aminopeptidase. The data set is described as follows: Enzyme catalyzed warhead release (Ellman colorimetric assay). The format is biochemical, hog. As to conditions: pH 7.0; linear rate over the observation period (5 min). The procedure:
In each case upon addition of the enzyme, Leucine Aminopeptidase, the warhead was released. The release was maintained at a linear rate over the observation period (5 min). […] These observations are consistent with literature reports of the optimal pH necessary for the efficacy of this enzyme. These observations were obtained by colorimetric assay, which involves the reaction between a free sulfhydryl group and 5,5'-dithio-bis(2-nitrobenzoic acid), the Ellman reagent, to produce a yellow color as follows: [drawing 44] The peptide from Example 4 was dissolved in 4 mM of phosphate buffer solution (pH 7) containing the Ellman reagent at a level of 4 mg/ml to produce a 1 mM solution of the peptide. The resulting mixture was monitored using a spectrophotometer at a wavelength of 412 nm. To 1 ml of this solution was added 100 µg of hog kidney leucine aminopeptidase (Sigma) and the enzymatic hydrolysis was continuously monitored at 412 nm.
In general terms: In Ellman's method for cholinesterases, released thiocholine reacts with DTNB.

Data set [4] has as its system representative fungal and bacterial organisms. Put plainly: Biological screen of the utility (antimicrobial) example. The class given is cell-based. As to conditions: product of first deblocking, later found not completely deblocked. How it is done: A prototypal compound, L-alanyl-2-(5-fluorouracil-2-yl)-L-glycine, was evaluated against representative fungal and bacterial organisms.
Candida albicans strains B―311 and BC 759, obtained from Smith Kline and French Laboratory Culture Collection were grown in a trypticase soy broth at 28° for 7 hours. The seeded plates, with this medium containing 1.5% agar, were prepared by inoculating 1 ml of the inoculum in 1 I of yeast-carbon base medium, containing 200 µg/ml of lysine or glutamate as a sole source of nitrogen.
as §1
A method similar to A above but using E. coli was used which employs a M-9 medium (basic salts with ammonium ion as the nitrogen source and glucose as the carbon source).

Regarding `C[C@H](N)C(=O)NC(C(=O)O)n1cc(F)c(=O)[nH]c1=O` (mixture of isomers) [L-, DL, L-alanyl-2-(5-fluorouracil-1-yl)-D,L-glycine], the antifungal activity result in data set [1] is “antifungal activity”.

In the case of `C[C@H](N)C(=O)NC(SCCNc1cc(C(=O)O)nc(C(=O)O)c1)C(=O)O` (stereo partly shown) [Example 4], the half-life in data set [2] is greater than 83.3 h. Besides, the non-enzymatic warhead release result in data set [2] (pH 7.5) is “no noticeable increases”. The “warhead release upon addition of the enzyme” value in data set [3] is “released”.

In the case of `C[C@H](N)C(=O)NC(NNS(=O)(=O)c1cc(C(=O)O)cc(C(=O)O)c1)C(=O)O` (stereo partly drawn) [Example 12, L-alanyl-2-(3,5-dicarboxy-phenylsulfohydrazino)-D,L-glycine], in data set [4], the “activity in the biological screen” value is reported as “not active”.

For `C[C@H](N)C(=O)NC(Sc1ccccc1)C(=O)O` (stereo partly drawn) [Example 13, L-alanyl-2-(thiophenyl)-D,L-glycine], the half-life in data set [2] is greater than 83.3 h.

With `C[C@H](N)C(=O)NC(C(=O)O)n1cc(F)c(=O)[nH]c1=O` (stereo partly drawn) [L-L, L-alanyl-2-(5-fluorouracil-2-yl)-L-glycine], in data set [1], the antifungal activity entry was “antifungal activity”.
